System: Ninety four (94) cell lines and PBMC
Assay: Cell viability assay, SRB staining, 94 cell lines and PBMC (Example 7, Experiment 2)
Assay type: cell-based
Protocol: Ninety four (94) cell lines were seeded at a density varying from 500 to 7000 cells/well depending on their growth characteristics. PBMC were seeded at the density 50,000-100,000 cells/well. Cells were incubated for 48 h prior to compound treatment. Compound 1 and DON were evaluated at a concertation range of 1 nM up to 100 μM. Compound 1 dilutions in DMSO and DON dilutions in PBS were performed in 96-well 0.5 mL plates (Greiner Bio-One, Germany). Compounds were then diluted 1:100 in RPMI medium. […] of cells were treated by mixing with 10 μL of the compound-containing media (resulting in a final DMSO concentration of 0.1%). The cells were allowed to grow at 37° C. for 120 h. Cells were fixed to the surface by addition of 10% TCA (for adherent growing cells) or 50% TCA (for semi-adherent growing cells or cells growing in suspension). After an hour of incubation at 4° C., plates were washed twice with 400 μL of deionized water and dried. Cells were then stained with 100 μL of 0.04% wt/v SRB. The plates were incubated at room temperature for at least 30 min and washed six times with 1% acetic acid to remove unbound stain. The plates were left to dry at room temperature and bound SRB was solubilized with 100 μL of 10 mM Tris base. Optical density was measured at 492, 520 and 560 nm using a Deelux-LED96 plate reader (Deelux Labortechnik GmbH, Germany).
Cell lines were purchased directly from the ATCC, NCI, CLS, and DSMZ cell line collections. A master bank and working aliquots were prepared. Cells used for the study had undergone less than 20 passages. To rule out potential contamination or wrong assignment, all cell lines were tested by STR analysis. Absence of mycoplasma contamination was confirmed for all cell lines used in the studies.
The cell lines were grown in the media recommended by the suppliers in the presence of 100 U/mL penicillin and 100 μg/mL streptomycin supplied with 10% FCS (PAA, Germany). RPMI 1640, DMEM, and MEM Earle's medium were from PAA (Coelbe, Germany), supplements 2 mM L-glutamine, 1 mM Na-pyruvate and 1% NEAA were from PAA (Coelbe, Germany), 2.5% horse serum, hydrocortisone, transferin, beta-estradiol, selenite and 1 U/mL insulin from Sigma-Aldrich (Munich, Germany). RPMI medium was used for culturing the following cell lines: 5637, 22RV1, 7860, A2780, A431, A549, ACHN, ASPC1, BT20, BXPC3, CAKI1, CLS439, COLO205, COLO678, DLD1, DU145, EFO21, EJ28, HCT15, HS578T, IGROV1, JAR, LOVO, MCF7, MDA MB231, MDA MB435, MDA MB436, MDA MB468, MHHES1, MT3, NCI H292, NCI H358M, NCI H460, NCIH82, OVCAR3, OVCAR4, PANC 1005 (addition of insulin), PBMC, PC3, RDES, SF268, SF295, SKBR3, SK MEL28, SKMEL5, SKOV3, SW620, U2OS, UMUC3, and U031.
DMEM medium was used to culture A204, A375, A673, C33A, CASKI, HCT116, HEPG2, HS729, HT29, J82, MG63, MIAPACA2 (addition of horse serum), PANC1, PLCPRF5, RD, SAOS2, SKLMS1, SKNAS, SNB75, T24, and TE671.
MEM Earle's medium was used for CACO2, CALU6, HEK293, HELA, HT1080, IMR90, JEG3, JIMT1, SKHEP1, SKNSH, and U87MG. Cell seeding conditions were optimized for each cell line. The cell seeding density varied from 500 to 7000 cells/well depending on their growth characteristics. Peripheral blood mononuclear cells (PBMC) were freshly isolated from whole blood of an anonymous donor through density gradient centrifugation using Ficoll solution (d=1.077). In short, blood was diluted 1:1 with PBS and carefully placed on the Ficoll. After centrifugation 1000×g for 15 min (braking rate 0), the ring containing mainly leucocytes was collected in PBS followed by three times washing with PBS to reduce the platelets. PBMC were seeded at the density 50,000-100,000 cells/well. Cells were grown in 5% CO2 atmosphere in a NB-203XXL incubator (N-BIOTEK Inc., Korea).
Ninety-four cell lines were tested in parallel. Cell growth and treatment were performed in 96 well microtitre plates CELLSTAR® (Greiner Bio-One, Germany). […]

[1] = Homo sapiens, MDA-MB-468, MDAMB468, breast
[2] = Homo sapiens, MG-63, MG63, bone
[3] = Homo sapiens, MHH-ES-1, MHHES1, bone
[4] = Homo sapiens, MIA PaCa-2, MIAPACA2, pancreas
[5] = Homo sapiens, MINO, hematological
[6] = Homo sapiens, MV4-11, MV4-11, hematological
[7] = Homo sapiens, NCI-H460, NCIH460, lung
[8] = Homo sapiens, OVCAR-3, OVCAR3, ovary
[9] = Homo sapiens, OVCAR-4, OVCAR4, ovary
[10] = Homo sapiens, PANC-1, PANC1, pancreas
[11] = Homo sapiens, PLC-PRF-5, PLCPRF5, liver
[12] = Homo sapiens, Panc1005, PANC1005, pancreas
[13] = Homo sapiens, SAOS-2, SAOS2, bone
[14] = Homo sapiens, SF-268, SF268, brain
[15] = Homo sapiens, SF-295, SF295, brain
[16] = Homo sapiens, SK-BR-3, SKBR3, breast
[17] = Homo sapiens, SK-HEP1, SKHEP1, liver
[18] = Homo sapiens, SK-LMS-1, SKLMS1, uterus
[19] = Homo sapiens, SK-MEL-5, SKMEL5, skin
[20] = Homo sapiens, SK-MEL-28, SKMEL28, skin
[21] = Homo sapiens, SK-N-AS, SKNAS, brain
[22] = Homo sapiens, SK-N-SH, SKNSH, brain
[23] = Homo sapiens, SK-OV-3, SKOV3, ovary
[24] = Homo sapiens, SNB-75, SNB75, brain
[25] = Homo sapiens, SU-DHL-6, SU-DHL-6, hematological
[26] = Homo sapiens, SW-620, SW620, colon
[27] = Homo sapiens, TE-671, TE671, muscle
[28] = Homo sapiens, THP-1, THP-1, hematological
[29] = Homo sapiens, U-87 MG, U87MG, brain
[30] = Homo sapiens, UMUC3, UMUC3, bladder
[31] = Homo sapiens, UO-31, UO31, kidney
[32] = Homo sapiens, WSU-NHL, hematological

Compound: CC(=O)N[C@@H](Cc1c[nH]c2ccccc12)C(=O)N[C@@H](CCC(=O)C=[N+]=[N-])C(=O)OC(C)C [Compound 1, Isopropyl (S)-2-((S)-2-acetamido-3-(1H-indol-3-yl)propanamido)-6-diazo-5-oxohexanoate]
- GI50 [1]: 0.531 µM
- IC50 [1]: 0.789 µM
- GI50 [2]: 4.6 µM
- IC50 [2]: 5.38 µM
- GI50 [3]: 6.19 µM
- IC50 [3]: 6.34 µM
- GI50 [4]: 3.29 µM
- IC50 [4]: 3.56 µM
- GI50 [5]: 0.61 µM
- IC50 [5]: 0.798 µM
- GI50 [6]: 0.976 µM
- IC50 [6]: 1.03 µM
- GI50 (Homo sapiens, NCI-H292, NCIH292, lung): 14.5 µM
- GI50 [7]: 4.74 µM
- IC50 [7]: 5.01 µM
- GI50 [8]: 1.65 µM
- IC50 [8]: 4.06 µM
- GI50 [9]: 0.812 µM
- IC50 [9]: 1.67 µM
- GI50 [10]: 7.98 µM
- IC50 [10]: 8.46 µM
- GI50 [11]: 6.15 µM
- IC50 [11]: 7.45 µM
- GI50 [12]: 14.8 µM
- IC50 [12]: 28.9 µM
- GI50 (Homo sapiens, Ramos, hematological): 6.63 µM
- GI50 [13]: 2.8 µM
- IC50 [13]: 20.8 µM
- GI50 [14]: 7.37 µM
- IC50 [14]: 9.53 µM
- GI50 [15]: 9.73 µM
- IC50 [15]: 10.9 µM
- GI50 [16]: 2.65 µM
- IC50 [16]: 3.91 µM
- GI50 [17]: 3.93 µM
- IC50 [17]: 5.12 µM
- GI50 [18]: 1.34 µM
- IC50 [18]: 2.15 µM
- GI50 [19]: 2.05 µM
- IC50 [19]: 2.9 µM
- GI50 [20]: 1.23 µM
- IC50 [20]: 1.61 µM
- GI50 [21]: 7.62 µM
- IC50 [21]: 18.6 µM
- GI50 [22]: 8.18 µM
- IC50 [22]: 9.15 µM
- GI50 [23]: 1.26 µM
- IC50 [23]: 3.81 µM
- GI50 [24]: 18.4 µM
- IC50 [24]: 40 µM
- GI50 (Homo sapiens, SU-DHL10, SU-DHL-10, hematological): 4.18 µM
- GI50 [25]: 0.971 µM
- IC50 [25]: 1.13 µM
- GI50 [26]: 7.96 µM
- IC50 [26]: 8.58 µM
- GI50 [27]: 5.44 µM
- IC50 [27]: 5.97 µM
- GI50 [28]: 1.99 µM
- IC50 [28]: 2.25 µM
- GI50 (Homo sapiens, U2OS, bone): 10 µM
- IC50 (Homo sapiens, U2OS, bone): 12.9 µM
- GI50 [29]: 2.38 µM
- IC50 [29]: 4.1 µM
- GI50 [30]: 2.32 µM
- IC50 [30]: 2.75 µM
- GI50 [31]: 17.7 µM
- IC50 [31]: 44.9 µM
- GI50 [32]: 1.16 µM
- IC50 [32]: 1.5 µM
- IC50 (J82, bladder): 15.9 µM
- IC50 (JAR, placenta): 2.41 µM
- IC50 (MT3, breast): 1.46 µM
- GI50 (NCI-H358M, NCIH358M, lung): 3.31 µM
- IC50 (NCI-H358M, NCIH358M, lung): 8.92 µM
- GI50 (PBMC, 5637, bladder): 2.15 µM
- GI50 (PBMC, CLS439, bladder): 7.57 µM
- GI50 (PBMC, HS729, muscle): 10.1 µM
- GI50 (PBMC, J82, bladder): 14.2 µM
- GI50 (PBMC, JAR, placenta): 2.23 µM
- GI50 (PBMC, MT3, breast): 1.1 µM
- GI50 (PBMC, PC3, prostate): 11.5 µM
- GI50 (PBMC, RD, muscle): 4.05 µM
- GI50 (PBMC, T24, bladder): 4.71 µM
- IC50 (PC3, prostate): 17.9 µM
- IC50 (RD, muscle): 5.44 µM
- GI50 (RD-ES, RDES, bone): 3.95 µM
- IC50 (RD-ES, RDES, bone): 5.48 µM
- IC50 (T24, bladder): 4.95 µM

Reference: US20220117938A1, “COMBINATON THERAPY WITH A DON PRODRUG AND AN IMMUNE CHECKPOINT INHIBITOR” (DRACEN PHARMACEUTICALS, INC., priority 2019, published 2022)
